Test results reported in US11981658B2, “Substituted aminopyridine compounds as EGFR inhibitors” (YUHAN CORPORATION, priority 2021, dated 2024).
Where two headings read alike, the source gives them in different places.

Columns and labels:
EGFR L858R/C797S = EGFR L858R/C797S (Homo sapiens, UniProt P00533, C797S/L858R); assay: Biochemical EGFR kinase inhibition assay (Lance Ultra TR-FRET), double mutant L858R/C797S
Summary of the method: (§1)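 In this biochemical assay, phosphorylation after a one-hour room-temperature reaction was detected with europium-labelled anti-phosphopeptide antibody at 2 nM final concentration.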

EGFR Del19/T790M/C797S = EGFR Del19/T790M/C797S (Homo sapiens, UniProt P00533, C797S/DEL746-750/T790M); assay: Biochemical EGFR kinase inhibition assay (Lance Ultra TR-FRET), triple mutant del19/T790M/C797S
Summary of the method: as §1

EGFR Del19/C797S = EGFR Del19/C797S (Homo sapiens, UniProt P00533, C797S/DEL746-750); assay: Biochemical EGFR kinase inhibition assay (Lance Ultra TR-FRET), double mutant del19/C797S
Summary of the method: as §1

EGFR wildtype (WT) = EGFR wildtype (WT) (Homo sapiens, UniProt P00533); assay: Biochemical EGFR kinase inhibition assay (Lance Ultra TR-FRET), wildtype
Summary of the method: as §1

EGFR L858R/T790M/C797S = EGFR L858R/T790M/C797S (Homo sapiens, UniProt P00533, C797S/L858R/T790M); assay: Biochemical EGFR kinase inhibition assay (Lance Ultra TR-FRET), triple mutant L858R/T790M/C797S
Summary of the method: as §1

[1] = IC50 L858R/C797S (nM), 100 μM ATP
[2] = Km ATP, read-out: IC50 L858R/C797S (nM), Km ATP
[3] = IC50 Del19/T790M/C797S (nM), 100 μM ATP
[4] = IC50 Del19/C797S (nM), 100 μM ATP
[5] = Km ATP, read-out: IC50 Del19/C797S (nM), Km ATP
[6] = Km ATP, read-out: IC50 WT (nM), Km ATP
[7] = IC50 L858R/T790M/C797S (nM), 100 μM ATP
[8] = Km ATP, read-out: IC50 L858R/C797S (nM) Km ATP
[9] = Km ATP, read-out: IC50 Del19/T790M/C797S (nM) Km ATP
[10] = Km ATP, read-out: IC50 Del19/C797S (nM) Km ATP
[11] = Km ATP, read-out: IC50 WT (nM) Km ATP
[12] = Km ATP, read-out: IC50 L858R/T790M/C797S (nM) Km ATP
[13] = ATP at Km, read-out: IC50 L858R/C797S (nM), Km ATP
[14] = ATP at Km, read-out: IC50 Del19/T790M/C797S (nM), Km ATP
[15] = ATP at Km, read-out: IC50 Del19/C797S (nM), Km ATP
[16] = ATP at Km, read-out: IC50 WT (nM), Km ATP
[17] = ATP at Km, read-out: IC50 L858R/T790M/C797S (nM), Km ATP

Chain of EGFR Del19/C797S (P00533 with tags, fused parts or gaps DEL746-750/C797S): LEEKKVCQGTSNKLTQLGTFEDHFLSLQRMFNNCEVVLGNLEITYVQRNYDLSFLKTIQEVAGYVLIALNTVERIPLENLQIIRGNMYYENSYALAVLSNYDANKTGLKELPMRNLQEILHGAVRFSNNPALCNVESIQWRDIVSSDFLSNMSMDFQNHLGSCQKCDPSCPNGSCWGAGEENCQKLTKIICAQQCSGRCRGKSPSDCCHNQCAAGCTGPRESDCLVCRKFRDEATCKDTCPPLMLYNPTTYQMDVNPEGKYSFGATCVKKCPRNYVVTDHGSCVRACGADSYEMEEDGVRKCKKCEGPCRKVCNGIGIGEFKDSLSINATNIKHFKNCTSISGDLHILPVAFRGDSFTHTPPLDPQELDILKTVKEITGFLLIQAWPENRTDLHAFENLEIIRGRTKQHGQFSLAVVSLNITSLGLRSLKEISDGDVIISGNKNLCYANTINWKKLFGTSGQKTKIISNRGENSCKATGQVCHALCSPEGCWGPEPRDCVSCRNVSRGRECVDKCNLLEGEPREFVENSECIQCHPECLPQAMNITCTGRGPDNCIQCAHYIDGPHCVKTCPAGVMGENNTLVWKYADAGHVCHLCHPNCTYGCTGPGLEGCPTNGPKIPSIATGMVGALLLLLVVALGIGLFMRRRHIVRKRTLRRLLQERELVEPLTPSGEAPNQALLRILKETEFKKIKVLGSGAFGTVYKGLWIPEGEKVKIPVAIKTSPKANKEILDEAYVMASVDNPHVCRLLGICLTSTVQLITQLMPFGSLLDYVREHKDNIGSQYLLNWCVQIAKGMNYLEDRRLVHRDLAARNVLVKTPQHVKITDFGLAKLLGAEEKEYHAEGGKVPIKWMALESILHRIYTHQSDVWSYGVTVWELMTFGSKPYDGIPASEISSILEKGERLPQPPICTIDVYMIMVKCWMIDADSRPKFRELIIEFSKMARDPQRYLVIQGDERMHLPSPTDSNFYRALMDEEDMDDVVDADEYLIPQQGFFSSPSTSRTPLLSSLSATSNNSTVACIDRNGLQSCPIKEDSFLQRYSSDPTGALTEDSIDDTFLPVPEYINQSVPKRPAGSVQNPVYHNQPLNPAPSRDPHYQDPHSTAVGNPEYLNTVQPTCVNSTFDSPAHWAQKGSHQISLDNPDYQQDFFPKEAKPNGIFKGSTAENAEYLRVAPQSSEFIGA
Chain of EGFR L858R/T790M/C797S (P00533 25-1210 T790M/C797S/L858R): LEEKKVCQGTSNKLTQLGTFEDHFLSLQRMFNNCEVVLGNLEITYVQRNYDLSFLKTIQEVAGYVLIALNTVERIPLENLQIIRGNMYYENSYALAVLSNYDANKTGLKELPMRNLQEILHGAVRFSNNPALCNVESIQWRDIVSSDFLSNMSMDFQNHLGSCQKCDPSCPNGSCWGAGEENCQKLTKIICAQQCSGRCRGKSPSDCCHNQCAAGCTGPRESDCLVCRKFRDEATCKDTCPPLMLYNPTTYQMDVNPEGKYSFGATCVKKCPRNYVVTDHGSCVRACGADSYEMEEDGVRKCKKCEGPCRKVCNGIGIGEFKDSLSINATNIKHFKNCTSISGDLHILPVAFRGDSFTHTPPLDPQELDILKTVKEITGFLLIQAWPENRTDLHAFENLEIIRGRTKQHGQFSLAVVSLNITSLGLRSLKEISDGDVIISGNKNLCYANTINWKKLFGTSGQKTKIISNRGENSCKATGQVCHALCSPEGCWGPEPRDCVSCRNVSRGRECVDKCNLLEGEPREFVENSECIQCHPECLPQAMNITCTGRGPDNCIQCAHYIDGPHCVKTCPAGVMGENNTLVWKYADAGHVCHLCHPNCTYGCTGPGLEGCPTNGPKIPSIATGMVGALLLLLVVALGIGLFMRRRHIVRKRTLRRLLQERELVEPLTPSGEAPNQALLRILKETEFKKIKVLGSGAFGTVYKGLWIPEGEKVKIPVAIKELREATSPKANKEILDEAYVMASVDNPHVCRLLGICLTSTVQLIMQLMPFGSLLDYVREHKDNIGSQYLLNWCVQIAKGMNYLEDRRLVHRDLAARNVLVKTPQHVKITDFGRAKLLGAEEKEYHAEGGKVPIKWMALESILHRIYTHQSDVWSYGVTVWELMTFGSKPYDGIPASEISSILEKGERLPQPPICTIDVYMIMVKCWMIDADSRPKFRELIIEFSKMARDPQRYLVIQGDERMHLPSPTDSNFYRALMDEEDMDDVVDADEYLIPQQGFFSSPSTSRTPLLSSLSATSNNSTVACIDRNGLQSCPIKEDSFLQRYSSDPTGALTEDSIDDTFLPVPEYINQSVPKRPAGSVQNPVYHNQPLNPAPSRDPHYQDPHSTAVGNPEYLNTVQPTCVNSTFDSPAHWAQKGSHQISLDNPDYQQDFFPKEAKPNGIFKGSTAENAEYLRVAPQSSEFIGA
Chain of EGFR Del19/T790M/C797S (P00533 with tags, fused parts or gaps DEL746-750/T790M/C797S): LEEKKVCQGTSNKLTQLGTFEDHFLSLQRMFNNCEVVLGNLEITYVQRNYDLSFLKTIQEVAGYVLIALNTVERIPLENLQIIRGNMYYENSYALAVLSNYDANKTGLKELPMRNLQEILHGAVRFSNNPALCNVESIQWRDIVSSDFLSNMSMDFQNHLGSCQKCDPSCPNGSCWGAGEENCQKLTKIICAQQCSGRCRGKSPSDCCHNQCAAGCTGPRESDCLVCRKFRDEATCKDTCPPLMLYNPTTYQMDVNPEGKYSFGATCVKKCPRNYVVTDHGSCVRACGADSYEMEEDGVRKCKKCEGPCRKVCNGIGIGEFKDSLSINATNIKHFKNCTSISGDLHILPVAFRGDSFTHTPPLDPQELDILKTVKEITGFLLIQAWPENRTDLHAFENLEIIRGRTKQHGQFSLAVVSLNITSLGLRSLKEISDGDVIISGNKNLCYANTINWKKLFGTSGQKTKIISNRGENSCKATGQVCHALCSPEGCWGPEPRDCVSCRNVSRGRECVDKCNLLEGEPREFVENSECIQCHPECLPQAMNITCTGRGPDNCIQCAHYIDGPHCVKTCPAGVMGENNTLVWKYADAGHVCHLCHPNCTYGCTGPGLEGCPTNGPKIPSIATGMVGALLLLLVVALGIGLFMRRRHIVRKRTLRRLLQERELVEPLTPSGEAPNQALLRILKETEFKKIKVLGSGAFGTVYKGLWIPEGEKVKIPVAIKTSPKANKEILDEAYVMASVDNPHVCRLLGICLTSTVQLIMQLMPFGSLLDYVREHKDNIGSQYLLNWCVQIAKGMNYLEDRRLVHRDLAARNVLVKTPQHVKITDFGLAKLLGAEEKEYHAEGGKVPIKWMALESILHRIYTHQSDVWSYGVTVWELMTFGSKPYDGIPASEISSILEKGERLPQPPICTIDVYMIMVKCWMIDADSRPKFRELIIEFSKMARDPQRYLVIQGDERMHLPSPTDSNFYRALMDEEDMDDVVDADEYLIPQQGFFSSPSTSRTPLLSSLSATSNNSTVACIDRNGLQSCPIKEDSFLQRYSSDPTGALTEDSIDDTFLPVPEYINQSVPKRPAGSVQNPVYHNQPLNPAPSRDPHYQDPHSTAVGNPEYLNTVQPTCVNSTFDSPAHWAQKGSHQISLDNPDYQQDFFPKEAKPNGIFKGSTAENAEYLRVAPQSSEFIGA
Chain of EGFR wildtype (WT) (P00533 25-1210): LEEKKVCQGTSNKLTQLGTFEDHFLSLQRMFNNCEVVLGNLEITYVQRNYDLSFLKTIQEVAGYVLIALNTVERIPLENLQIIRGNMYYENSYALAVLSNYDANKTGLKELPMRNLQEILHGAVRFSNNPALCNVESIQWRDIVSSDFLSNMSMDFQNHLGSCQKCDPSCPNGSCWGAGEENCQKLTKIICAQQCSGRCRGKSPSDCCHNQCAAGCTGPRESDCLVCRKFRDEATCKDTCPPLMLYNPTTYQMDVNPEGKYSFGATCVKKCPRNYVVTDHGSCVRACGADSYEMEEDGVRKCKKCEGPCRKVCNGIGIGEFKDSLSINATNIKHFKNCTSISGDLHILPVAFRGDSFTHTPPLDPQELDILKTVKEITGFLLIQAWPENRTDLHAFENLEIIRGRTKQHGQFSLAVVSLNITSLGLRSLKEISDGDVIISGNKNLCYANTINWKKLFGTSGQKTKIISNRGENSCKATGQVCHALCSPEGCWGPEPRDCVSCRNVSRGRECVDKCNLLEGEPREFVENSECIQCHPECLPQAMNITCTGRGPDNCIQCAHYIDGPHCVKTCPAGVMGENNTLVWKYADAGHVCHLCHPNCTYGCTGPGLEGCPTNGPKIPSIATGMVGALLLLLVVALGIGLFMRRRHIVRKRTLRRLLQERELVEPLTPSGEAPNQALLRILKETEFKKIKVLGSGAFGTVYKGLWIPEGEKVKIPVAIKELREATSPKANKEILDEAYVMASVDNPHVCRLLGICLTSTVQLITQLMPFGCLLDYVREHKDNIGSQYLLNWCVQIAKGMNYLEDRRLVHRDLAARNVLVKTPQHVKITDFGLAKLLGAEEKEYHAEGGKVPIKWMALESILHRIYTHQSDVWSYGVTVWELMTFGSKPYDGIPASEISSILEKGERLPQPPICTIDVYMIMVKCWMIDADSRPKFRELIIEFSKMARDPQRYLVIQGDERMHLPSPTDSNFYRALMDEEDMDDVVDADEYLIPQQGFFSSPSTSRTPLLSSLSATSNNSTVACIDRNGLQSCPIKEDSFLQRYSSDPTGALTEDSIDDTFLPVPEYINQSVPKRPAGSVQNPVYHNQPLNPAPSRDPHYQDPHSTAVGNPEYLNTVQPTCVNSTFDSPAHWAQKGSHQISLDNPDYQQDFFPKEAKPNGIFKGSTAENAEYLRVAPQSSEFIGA

| Structure (SMILES) | IC50 (EGFR L858R/C797S; [1]) | IC50 (EGFR Del19/T790M/C797S; [3]) | IC50 (EGFR Del19/C797S; [4]) | IC50 (EGFR wildtype (WT); IC50 WT (nM), 100 μM ATP) | IC50 (EGFR L858R/T790M/C797S; [7]) | IC50 (EGFR L858R/C797S; [13]) | IC50 (EGFR Del19/T790M/C797S; [14]) | IC50 (EGFR Del19/C797S; [15]) | IC50 (EGFR wildtype (WT); [16]) | IC50 (EGFR L858R/T790M/C797S; [17]) | further results |
| --- | --- | --- | --- | --- | --- | --- | --- | --- | --- | --- | --- |
| O=S(=O)(C1CC1)n1cc(-c2nccc(Nc3cc(N4CCC5(CCCO5)CC4)c(C#Cc4ncc(CN5CCOCC5)cn4)cn3)n2)cn1 [Example 366, 2-(1-(Cyclopropylsulfonyl)-1H-pyrazol-4-yl)-N-(5-((5-(morpholinomethyl)pyrimidin-2-yl)ethynyl)-4-(1-oxa-8-azaspiro[4.5]decan-8-yl)pyridin-2-yl)pyrimidin-4-amine] | 16.7 nM | 0.5 nM | 4.4 nM | > 10000 nM | 1.1 nM |  |  |  |  |  | IC50 (EGFR L858R/C797S; [2]): 2.9 nM; IC50 (EGFR Del19/T790M/C797S; Km ATP, read-out: IC50 Del19/T790M/C797S (nM), Km ATP): 0.3 nM; IC50 (EGFR Del19/C797S; [5]): 2.5 nM; IC50 (EGFR wildtype (WT); [6]): 7.2 nM; IC50 (EGFR L858R/T790M/C797S; Km ATP, read-out: IC50 L858R/T790M/C797S (nM), Km ATP): 0.1 nM |
| Cn1ccc(C#Cc2cnc(Nc3ccnc(-c4cnn(S(=O)(=O)C5CC5)c4)n3)cc2N2CCC(C)(CO)CC2)n1 [Example 107, (1-(2-((2-(1-(Cyclopropylsulfonyl)-1H-pyrazol-4-yl)pyrimidin-4-yl)amino)-5-((1-methyl-1H-pyrazol-3-yl)ethynyl)pyridin-4-yl)-4-methylpiperidin-4-yl)methanol] | 85.6 nM | 1.2 nM | 4.6 nM | > 10000 nM | 1.3 nM |  |  |  |  |  | IC50 (EGFR L858R/C797S; [8]): 1.9 nM; IC50 (EGFR Del19/T790M/C797S; [9]): 1.2 nM; IC50 (EGFR Del19/C797S; [10]): 3.2 nM; IC50 (EGFR wildtype (WT); [11]): 24.1 nM; IC50 (EGFR L858R/T790M/C797S; [12]): 0.6 nM |
| CC1(CO)CCN(c2cc(Nc3ccnc(-c4cnn(S(=O)(=O)C5CC5)c4)n3)ncc2C#Cc2csc(CN3CCOCC3)n2)CC1 [Example 189, (1-(2-((2-(1-(Cyclopropylsulfonyl)-1H-pyrazol-4-yl)pyrimidin-4-yl)amino)-5-((2-(morpholinomethyl)thiazol-4-yl)ethynyl)pyridin-4-yl)-4-methylpiperidin-4-yl)methanol] | 40.4 nM | 0.7 nM | 1.8 nM | > 10000 nM | 0.9 nM | 2.8 nM | 0.7 nM | 2.1 nM | 8.4 nM | 0.6 nM |  |
| CC1(O)CCN(c2cc(Nc3ccnc(-c4cnn(S(=O)(=O)C5CC5)c4)n3)ncc2C#CC2(C)CC2)CC1 [Example 404, 1-(2-((2-(1-(Cyclopropylsulfonyl)-1H-pyrazol-4-yl)pyrimidin-4-yl)amino)-5-((1-methylcyclopropyl)ethynyl)pyridin-4-yl)-4-methylpiperidin-4-ol] | 55.6 nM | 1.7 nM | 3.6 nM | 9350 nM | 2.9 nM |  |  |  |  |  | IC50 (EGFR L858R/C797S; [2]): 2.7 nM; IC50 (EGFR Del19/C797S; [5]): 5.3 nM; IC50 (EGFR wildtype (WT); [6]): 45.8 nM |
| Cn1cc(C#Cc2cnc(Nc3ccnc(-c4cnn(S(=O)(=O)C5CC5)c4)n3)cc2NCC(C)(C)CO)cn1 [Example 39, 3-((2-((2-(1-Cyclopropylsulfonylpyrazol-4-yl)pyrimidin-4-yl)amino)-5-(2-(1-methylpyrazol-4-yl)ethynyl)-4-pyridyl)amino)-2,2-dimethyl-propan-1-ol] | 203 nM | 2.6 nM | 53.6 nM | > 10000 nM | 8.8 nM |  |  |  |  |  | IC50 (EGFR L858R/C797S; [8]): 32.3 nM |
| CC1(CO)CCN(c2cc(Nc3ccnc(-c4cnn(S(=O)(=O)C5CC5)c4)n3)ncc2C#Cc2cnn(CC(F)F)c2)CC1 [Example 49, (1-(2-((2-(1-(Cyclopropylsulfonyl)-1H-pyrazol-4-yl)pyrimidin-4-yl)amino)-5-((1-(2,2-difluoroethyl)-1H-pyrazol-4-yl)ethynyl)pyridin-4-yl)-4-methylpiperidin-4-yl)methanol] | 7.2 nM | 1.8 nM | 0.9 nM | 1260 nM | 2.9 nM |  |  |  |  |  | IC50 (EGFR L858R/C797S; [8]): 2.8 nM; IC50 (EGFR Del19/T790M/C797S; [9]): 1.8 nM; IC50 (EGFR Del19/C797S; [10]): 2.1 nM; IC50 (EGFR wildtype (WT); [11]): 14.3 nM; IC50 (EGFR L858R/T790M/C797S; [12]): 1.1 nM |
| O=S(=O)(C1CC1)n1cc(-c2nccc(Nc3cc(N[C@H]4CC[C@@H](O)CC4)c(C#CC4CCOCC4)cn3)n2)cn1 [Example 178, (1s,4s)-4-((2-((2-(1-(Cyclopropylsulfonyl)-1H-pyrazol-4-yl)pyrimidin-4-yl)amino)-5-((tetrahydro-2H-pyran-4-yl)ethynyl)pyridin-4-yl)amino)cyclohexan-1-ol] | 27 nM | 0.3 nM | 2.3 nM | 8010 nM | 0.3 nM | 3 nM | 0.3 nM | 1.1 nM | 9.5 nM | 0.2 nM |  |
| O=S(=O)(C1CC1)n1cc(-c2nccc(Nc3cc(N[C@H]4CC[C@@H](O)CC4)c(C#Cc4ccc(NCCN5CCOCC5)cc4)cn3)n2)cn1 [Example 172, (1s,4s)-4-((2-((2-(1-(Cyclopropylsulfonyl)-1H-pyrazol-4-yl)pyrimidin-4-yl)amino)-5-((4-((2-morpholinoethyl)amino)phenyl)ethynyl)pyridin-4-yl)amino)cyclohexan-1-ol] |  |  |  |  |  | 11.5 nM | 4.6 nM | 14.1 nM | 68.4 nM | 4.8 nM | IC50 (EGFR L858R/C797S; read-out: IC50 L858R/C797S (nM), 100 μM ATP): 124 nM; IC50 (EGFR Del19/T790M/C797S; read-out: IC50 Del19/T790M/C797S (nM), 100 μM ATP): 6.9 nM; IC50 (EGFR Del19/C797S; read-out: IC50 Del19/C797S (nM), 100 μM ATP): 32.4 nM; IC50 (EGFR wildtype (WT); read-out: IC50 WT (nM), 100 μM ATP): > 10000 nM; IC50 (EGFR L858R/T790M/C797S; read-out: IC50 L858R/T790M/C797S (nM), 100 μM ATP): 14.5 nM |
| O=S(=O)(C1CC1)n1cc(-c2nccc(Nc3cc(NC[C@H]4CC[C@H](CO)CC4)c(C#CC4CC5CCC4O5)cn3)n2)cn1 (stereo partly shown) [Example 425, ((1r,4r)-4-(((5-((7-Oxabicyclo[2.2.1]heptan-2-yl)ethynyl)-2-((2-(1-(cyclopropylsulfonyl)-1H-pyrazol-4-yl)pyrimidin-4-yl)amino)pyridin-4-yl)amino)methyl)cyclohexyl)methanol] | 1820 nM | 2.5 nM | 120 nM | > 10000 nM | 5.4 nM |  |  |  |  |  |  |
| CN(C)CCC1CCN(c2cc(Nc3ccnc(-c4cnn(S(=O)(=O)C5CC5)c4)n3)ncc2C#CC2(C)CC2)CC1 [Example 407, 2-(1-(Cyclopropylsulfonyl)-1H-pyrazol-4-yl)-N-(4-(4-(2-(dimethylamino)ethyl)piperidin-1-yl)-5-((1-methylcyclopropyl)ethynyl)pyridin-2-yl)pyrimidin-4-amine] | 13 nM | 0.3 nM | 0.7 nM | 1260 nM | 0.4 nM |  |  |  |  |  | IC50 (EGFR L858R/C797S; [2]): 0.8 nM; IC50 (EGFR Del19/C797S; [5]): 0.6 nM; IC50 (EGFR wildtype (WT); [6]): 4.4 nM |
| Cn1cc(C#Cc2cnc(Nc3ccnc(-c4cnn(S(=O)(=O)C5CC5)c4)n3)cc2N2CC3(CCNCC3)C2)cn1 [Example 155, 2-(1-(Cyclopropylsulfonyl)-1H-pyrazol-4-yl)-N-(5-((1-methyl-1H-pyrazol-4-yl)ethynyl)-4-(2,7-diazaspiro[3.5]nonan-2-yl)pyridin-2-yl)pyrimidin-4-amine] | 309 nM | 0.6 nM | 34.3 nM | > 10000 nM | 1.9 nM | 19.4 nM | 0.6 nM | 20.8 nM | 90.6 nM | 0.5 nM |  |
